# From patent US7292944B2, “Establishment of biological cut-off values for predicting resistance to therapy” (priority 2000, dated 2007)
# Tested on: HIV
# Assay: Antivirogram phenotypic drug susceptibility of untreated patient samples relative to laboratory wild type standard virus
# Type: cell-based
# Conditions: for effect of the change in cut-off value on the decision concerning resistance of the samples: new versus old cut-off value (FIG. 4, FIG. 5)
# From the text: In one embodiment, the biological cut-off values may be used in concert with direct phenotype assays, for example, Antivirogram™ (Virco, Inc.; WO 97/27480, U.S. Pat. No. 6,221,578 incorporated herein by reference). This assay is a phenotypic resistance assay that measures, in controlled laboratory conditions, the level of resistance of the HIV derived from an individual patient to each of the anti-HIV therapies currently available. The resistant ‘behavior’ of the virus may be the combined result of the effects of many different mutations and the complex interactions between them, including genetic changes that have not even been identified yet. In other words, it is a direct measure of resistance.
# The test provides a quantitative measure of viral resistance to all the available drugs. This is expressed in terms of the IC50. This is then compared to the IC50 for fully sensitive, non-mutated ‘wild-type’ virus. The resistance of the sampled virus to each therapy is then expressed in terms of a fold-change in IC50 compared to wild type. The report enables physicians to identify the therapy(s) that are no longer active and helps in the selection of the optimal combination of drugs for the individual patient.
# Drug susceptibility of approximately 1000 geographically diverse untreated patient samples was determined for all currently approved antiretrovirals using the Antivirogram™ assay. […] The fold change in sensitivity of the samples to a drug is also termed the fold resistance of the samples to the drug. The 2×SD value for each drug was used as the cut-off between sensitive (within normal susceptibile range) and resistant (above normal susceptible range). […] FIG. 1 represents an example of such an analysis for a single antiviral drug. These varied between 3-4.5 fold for the nucleosides, 6-10 fold for the NNRTIs and 2.5-4 fold for the PIs.
Compound,"biological cut-off value (2×SD of fold change in sensitivity / fold resistance) (approximately 1000 untreated patient samples, new cut-off between sensitive and resistant, old cut-off was 4 fold)",effect of the change in cut-off value on the decision concerning resistance of the samples
CC(C)Nc1cccnc1N1CCN(C(=O)c2cc3cc(NS(C)(=O)=O)ccc3[nH]2)CC1 [delavirdine],10 fold,did not actually affect the decision of many samples
Cc1cn([C@H]2C=C[C@@H](CO)O2)c(=O)[nH]c1=O [d4T],–,doubling of the number of resistant sample
